Assay [1] has as its target tyrosinase (EC 1.14.18.1, from mushroom). Nature of the assay: Amperometric biosensor: tyrosinase immobilized on carbon black paste electrode, inhibition of catechol response. In kind it is biochemical. As to conditions: for IC50: 0.1 M phosphate buffer pH 6.8, -0.15 V vs. Ag/AgCl; for IC50 / type of inhibition: immobilized tyrosinase; for type of inhibition: from shift of inhibition curve, 20 vs 200 µM catechol; for inhibition range of catechol response: 20 µM catechol. The protocol: The immobilization of tyrosinase onto the surface of the carbon black paste electrode (CBPE) was achieved by cross-linking with glutaraldehyde and bovine serum albumin (BSA) as reported elsewhere for several enzyme biosensors. In brief, the enzyme solution was first prepared by mixing 15 µL of Tyr (35 U/mL), 7.5 µL of BSA (1% w/v), and 7.5 µL of glutaraldehyde (0.25% w/v) on a glass slide. Then, 7.5 µL of the mixture was spread on the surface of a CBPE, and lastly, it was dried at room temperature for 1 h. Before electrochemical measurements, the enzyme electrode was placed under stirring for 10 min in PBS buffer to remove the enzyme not firmly immobilized. The electrodes were maintained at 4 °C in phosphate buffer, pH 6.8 until use.
The tyrosinase was immobilized on the surface of the carbon black paste electrode. The electrochemical measurements of o-quinone produced by the tyrosinase-based biosensor, in presence of catechol as substrate, were monitored by an amperometric measurement.
The enzyme activity assays were performed in an electrochemical cell containing 5 mL of 0.1 M phosphate buffer, pH 6.8 at 25 °C. The applied potential was fixed at −0.15 V.
To perform each amperometric measurement, the CBPE-Tyr electrode was dipped into an electrochemical cell containing 5 mL of 0.1 M phosphate buffer solution (pH 6.8) under constant magnetic stirring. The applied potential was fixed to −0.15 V versus Ag/AgCl. Once the baseline was established (10 min approximately), a defined amount of catechol solution was added to the measuring cell. […] Then, the inhibitor solutions were added consecutively each time a plateau was reached (approximately every 30 s). The addition of tyrosinase inhibitors causes an inhibition of the enzyme, consequently decreasing the amount of liberated enzymatic reaction products.
(§1) To evaluate the degree of inhibition (I%) of the tyrosinase activity, signal responses in the absence (I0) and the presence of an inhibitor (I1) were measured with either an electrochemical or colorimetric method. The degree of inhibition (I%) is expressed as follows: (1) I(%)=I0−I1/I0×100
When using the amperometric biosensor, the CBPE/Tyr modified electrode was immersed into a phosphate buffer solution at pH 6.8, under stirring and a fixed potential of −0.15 V. After stabilizing the baseline current, a fixed amount of catechol (substrate) was added to reach a steady-state current (I0) before adding the inhibitor. […] The concentration of inhibitors was increased to inhibit tyrosinase activity, and the current decrease (I1) was recorded.

For assay [2], the system named is mushroom tyrosinase. Put plainly: Spectrophotometric progress-curve assay of free tyrosinase with L-tyrosine (half-time reaction t'1/2). In kind it is biochemical. As to conditions: plot of t'1/2 versus inhibitor concentration at 0.5-3 mM L-tyrosine. The protocol:
Substrate conversion was evaluated by measuring the increase in absorbance at 490 nm. The absorbance was sampled every 1 min, allowing each progression curve to be constructed in 40 min.
as §1

The text below walks through data of article PMC8471001 (Biosensors, 2021).

The structures appear in SMILES notation. “Also recorded” adds a separate entry of the source.

For `O=C(O)c1ccccc1` [benzoic acid], the IC50 in assay [1] (20 µM catechol substrate) came out at 119 µM; in assay [1] (200 µM catechol substrate) it was 500 µM. Besides, in assay [1], the type of inhibition result is on record as “competed with catechol”. Moreover, in assay [1] (inhibitor 5 µM to 275 µM), the “inhibition range of catechol response” value is reported as 8–69%.

Take `O=c1cc(CO)occ1O` [kojic acid]: the figures for the type of inhibition entry in assay [1] and in assay [2] were “competitive inhibition; also recorded: competed with catechol” and “competitive inhibition”, respectively. In assay [1] (inhibitor 2.5 µM to 97.5 µM), the “inhibition range of catechol response” value is recorded as 13–74%.

Consider `[N-]=[N+]=[N-].[Na+]` [sodium azide], for which the IC50 amounted to 1480 µM in assay [1] (20 µM catechol substrate) and 2000 µM in assay [1] (200 µM catechol substrate). The type of inhibition result in assay [1] was “competed with catechol”. The “inhibition range of catechol response” value in assay [1] (inhibitor 0.01 mM to 1.57 mM) is reported as 7–64%.
